# Measurements reported in patent publication US9409876B2, “Bradykinin receptor antagonists and pharmaceutical compositions containing them” (DOMPE' FARMACEUTICI S.P.A., priority 2013, dated 2016).
# Biological target: T1, BKB1 receptors (Homo sapiens, UniProt P46663)
# T1 construct: Human (IMR-90) lung fibroblast cells expressing native BKB1 receptors; endogenous in cells; host or cells: IMR-90 human lung fibroblasts, treated with human IL-1 to up-regulate BKB1
# T1 sequence (P46663 1-353): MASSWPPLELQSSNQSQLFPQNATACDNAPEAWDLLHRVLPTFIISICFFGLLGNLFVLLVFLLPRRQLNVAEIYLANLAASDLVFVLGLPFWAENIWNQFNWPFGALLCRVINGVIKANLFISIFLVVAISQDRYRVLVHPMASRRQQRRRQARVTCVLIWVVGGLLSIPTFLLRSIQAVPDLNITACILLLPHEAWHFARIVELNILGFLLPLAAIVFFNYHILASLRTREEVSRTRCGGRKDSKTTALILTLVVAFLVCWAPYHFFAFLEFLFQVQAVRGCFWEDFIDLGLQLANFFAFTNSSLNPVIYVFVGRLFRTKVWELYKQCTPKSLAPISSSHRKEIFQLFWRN
# Test: Calcium Mobilization Assay (FLIPR), IMR-90 cells, BKB1
# Format: cell-based
# Conditions: IL-1 induced IMR-90 cells, agonist desArg10-kallidin (DAKD)
# Procedure: Calcium Mobilization Assay (FLIPR)—Human (IMR-90) lung fibroblast cells expressing native BKB1 receptors were harvested by trypsinization and seeded into black wall/clear bottom 96-well plates (Costar 3904; Corning Life Sciences, Acton, Mass.) at approximately 13,000 cells/well. After 1 day incubation, cells were treated with human IL-1 (0.35 ng/ml) in 10% FBS/MEM for 2 h to up-regulate BKB1 receptors. Induced cells were loaded with fluorescent calcium indicator by incubation with 2.3 µM Fluo-4/acetoxymethyl ester (Invitrogen) at 37° C. for 1.5 h in the presence of an anion transport inhibitor (2.5 mM probenecid in 1% FBS/MEM). Extracellular dye was removed by washing with assay buffer (2.5 mM probenecid, 0.1% BSA in 20 mM HEPES/HBSS without bicarbonate or phenol red, pH 7.5) and cell plates were kept in the dark until used. Test compounds were assayed at eight concentrations in triplicate.
row,Compound,IC50
1,"CCC(=O)N(Cc1ccccc1OC)C(C(=O)NCC1CCCO1)c1ccc(C)cc1 (stereo not drawn) [24 (mix), N-(2-methoxybenzyl)-N-{1-(4-methylphenyl)-2-oxo-2-[(tetrahydrofuran-2-ylmethyl)amino]ethyl}propanamide]",13200 nM
2,COc1ccccc1CN(C(=O)Cc1cccc(C)c1)C(C(=O)NCC1CCCO1)c1ccc(C)cc1 (stereo not drawn) [18 (mix)],300 nM
3,COc1ccccc1CN(C(=O)Cc1ccccc1C)C(C(=O)NCC1CCCO1)c1ccc(C)cc1 (stereo not drawn) [9 (mix)],300 nM
4,"N-(2-methoxybenzyl)-N-{(1R)-1-(4-methylphenyl)-2-oxo-2-[(2R)-(pyrrolidin-2-ylmethyl)amino]ethyl}-2-(1H-1,2,3-triazol-1-yl)acetate [Compound 55 (R,R)]",75.7 nM
5,"Cc1ccc(C(C(=O)NCC2CCCO2)N(CC2CCCCC2)C(=O)Cc2c[nH]cn2)cc1 (stereo not drawn) [36 (mix), N-(cyclohexylmethyl)-2-(1H-imidazol-4-yl)-N-{1-(4-methylphenyl)-2-oxo-2-[(tetrahydrofuran-2-ylmethyl)amino]ethyl}acetamide]",13800 nM
6,"COc1ccccc1CN(C(=O)c1ccc([N+](=O)[O-])cc1)C(C(=O)NCC1CCCO1)c1ccc(C)cc1 (stereo not drawn) [28 (mix), N-(2-methoxybenzyl)-4-nitro-N-{1-(4-methylphenyl)-2-oxo-2-[(tetrahydrofuran-2-ylmethyl)amino]ethyl}benzamide]",3000 nM
7,COc1ccccc1CC(=O)N(Cc1ccccc1OC)C(C(=O)NCC1CCCO1)c1ccc(C)cc1 (stereo not drawn) [13 (mix)],300 nM
8,"COc1ccccc1CN(C(=O)Cn1nnc2ccccc21)C(C(=O)NCC1CCCO1)c1ccc(C)cc1 (stereo not drawn) [1 (mix), 2-(1H-benzotriazol-1-yl)-N-(2-methoxybenzyl)-N-{1-(4-methylphenyl)-2-oxo-2-[(tetrahydrofuran-2-ylmethyl)amino]ethyl}acetamide]",1900 nM

# Other lines, results leading:
row,IC50,Compound
1,63 nM,"COc1ccccc1CN(C(=O)CC(C)C)C(C(=O)NCC1CCCO1)c1ccc(C2CC2)cc1 (stereo not drawn) [52 (mix), N-(2-methoxybenzyl]-N-[1-(4-cyclopropylphenyl)-2-oxo-2-[(tetrahydrofuran-2-yl)methylamino]ethyl)-3-methylbutanamide]"
2,63 nM,"COc1ccccc1CN(C(=O)c1coc(C)n1)[C@@H](C(=O)NC[C@H]1CCCO1)c1ccc(C)cc1 [Compound 2 (R,R)]"
3,297 nM,"COc1ccccc1CN(C(=O)Cn1nnc2ccccc21)C(C(=O)NCC1CCCO1)c1ccc(C(F)(F)F)cc1 (stereo not drawn) [53 (mix), 2-(1H-benzotriazol-1-yl)-N-(2-methoxybenzyl)-N-{1-(4-trifluoromethylphenyl)-2-oxo-2-[(tetrahydrofuran-2-ylmethyl)amino]ethyl}acetamide]"
4,5100 nM,"Cc1ccc(C(C(=O)NCC2CCCO2)N(CC2CCCCC2)C(=O)Cc2cccc(C)c2)cc1 (stereo not drawn) [40 (mix), N-(cyclohexylmethyl)-2-(3-methylphenyl)-N-{1-(4-methylphenyl)-2-oxo-2-[(tetrahydrofuran-2-ylmethyl)amino]ethyl}acetamide]"
